{"source": "patent EP0081756A1", "about": "“New compounds with antiinflammatory and antitussive activity, process for their preparation and relative pharmaceutical compositions” (MEDEA RESEARCH S.r.l., priority 1981, dated 1983)", "key": {"[1]": {"test_system": "whrithing by phenylquinone", "test": "Analgesic activity, writhing by phenylquinone (method of Siegmund)", "type": "in vivo", "conditions": "mice"}, "carrageenin edema": {"test_system": "carrageenin edema", "test": "Antiinflammatory activity, carrageenin edema test (method of Winter)", "type": "in vivo", "conditions": "rat; for % INHIBITION / EDEMA VOLUME Final value: 50 mg/kg oral 30 minutes before carrageenin, measured 3 hours after induction; for EDEMA VOLUME Basal value: 50 mg/kg oral", "experimental": "The antiinflammatory activity of MR 549 has been assessed by the carrageenin edema test in the rat according to the method of Winter et al. (Proc. Soc. Exp. Biol. Med., 1962, III, 544).\nThe product under exam and indomethaoin at equiponderant doses have been administered by the oral route 30 minutes before of the subplantar carragee ning injection; pletismographic measures of the edemas have been performed 3 hours after they had been induced."}, "motor activity": {"test_system": "motor activity", "test": "Spontaneous motor activity", "type": "in vivo", "conditions": "Swiss mouse, 50 mg/kg i.p.", "experimental": "The effect of MR 549 on the motor activity has been studied in the Swiss mouse, by placing two groups of animals in a box connected with a recorder detec ting spontaneous motility. On the basis of movemen- ts/minute recorded, MR 549 at the dose of 50 mg/kg i.p. has been administered to one group and the ac tivity has been recorded during the 2 hours following treatment; the second group, treated with the solvent alone, has been used as control group."}, "[2]": {"test": "Acute toxicity after single administration, rat", "conditions": "in vivo", "source_text": "(§1) The toxicity after single administrations of MR 549 has been studied in mice and rats by the oral and intraperitoneal routes.\n(§2) The LD50 values have been calculated according to the method of Litchfield and Wilooxon (J. Pharm. Exp. Therap., 1949, 96, 99)."}, "gastric mucosa [3]": {"test_system": "gastric mucosa", "conditions": "rat, in vivo, po", "description": "(§3) Male rats of S-D strain, weighing 180-200 g and fasting for 48 hours with free access to water, have been used. The product under exam have been administered by intraperitoneal routes : twice (after 24 and 31 hours from the beginning of the fasting period) at the single dose of 100 mg/kg; or three times by oral route (9.24 and 31 hours after the beginning of the fasting period) at the single dose of 150 mg/kg."}, "mouse": {"test_system": "mouse", "test": "Acute toxicity after single administration, mouse", "type": "in vivo", "conditions": "mice and rats, oral and intraperitoneal routes", "source_text": "as §1, §2"}, "[4]": {"test": "Acute toxicity after single administration, mouse", "type": "in vivo", "conditions": "in vivo, mouse, single administration", "source_text": "as §1, §2"}, "gastric mucosa [5]": {"test_system": "gastric mucosa", "test": "Gastric tolerability (method of Pisanti and Volterra)", "conditions": "fasting rats, 12 animals", "description": "as §3"}, "[6]": {"conditions": "50 mg/kg os, 30 minutes before phenylquinone injection"}}, "note": "Marks after values point to notes of the source that are not given here.", "data": [{"molecule": "CC(=O)Oc1ccccc1C(=O)O", "note": "[ACETYL-SALICYLIC ACID, acetylsalicylic acid, reference compound]", "values": [{"measurement": "% INHIBITION IN COMPARISON WITH CONTROLS", "setting": "[1]; 100 mg/kg os", "result": 79.6, "unit": "%"}, {"measurement": "N° CONTORSIONS X̄ ± e.s.", "setting": "[1]; 100 mg/kg os", "result": "3.9 ± 1.93"}, {"measurement": "N° WHRITHING ANIMALS/TOTAL N&", "setting": "[1]; 100 mg/kg os", "result": "12/20"}]}, {"molecule": "COc1ccc2c(c1)c(CC(=O)O)c(C)n2C(=O)c1ccc(Cl)cc1", "note": "[INDO-METHACINE, indomethacin, reference compound]", "values": [{"measurement": "% INHIBITION", "setting": "carrageenin edema", "result": 53.2, "unit": "%"}, {"measurement": "EDEMA VOLUME Final value", "setting": "carrageenin edema", "result": 29.6}, {"measurement": "EDEMA VOLUME Basal value", "setting": "carrageenin edema", "result": 22.5}]}, {"molecule": "Cc1cccnc1NC(=O)C1(c2ccccc2)CCCC1", "note": "[MR 549, 2-[(1-phenyl)cyclopentyl-carbonyl]-amino-3-methylpyridine]", "values": [{"measurement": "% INHIBITION", "setting": "carrageenin edema", "result": 38.1, "unit": "%"}, {"measurement": "EDEMA VOLUME Final value", "setting": "carrageenin edema", "result": 31.8}, {"measurement": "EDEMA VOLUME Basal value", "setting": "carrageenin edema", "result": 22.6}, {"measurement": "N° recorded movements/min.", "setting": "motor activity; 15'", "result": 42, "unit": "movements/min."}, {"measurement": "N° recorded movements/min.", "setting": "motor activity; 30'", "result": 52, "unit": "movements/min."}, {"measurement": "N° recorded movements/min.", "setting": "motor activity; 60'", "result": 39, "unit": "movements/min."}, {"measurement": "N° recorded movements/min.", "setting": "motor activity; 90'", "result": 52, "unit": "movements/min."}, {"measurement": "N° recorded movements/min.", "setting": "motor activity; Time: 0", "result": 45, "unit": "movements/min."}, {"measurement": "LD50", "setting": "[2]; ip", "result": 600, "unit": "mg/kg"}, {"measurement": "LD50", "setting": "[2]; po, os", "result": 1100, "unit": "mg/kg"}, {"measurement": "% INHIBITION IN COMPARISON WITH CONTROLS", "setting": "[1]; [6]", "result": 63.9, "unit": "%"}, {"measurement": "N° CONTORSIONS X̄ ± e.s.", "setting": "[1]; [6]", "result": "6.9 ± 2.24"}, {"measurement": "N° WHRITHING ANIMALS/TOTAL N&", "setting": "[1]; [6]", "result": "14/20"}, {"measurement": "gastrolesive action (verbal summary)", "setting": "gastric mucosa [3]", "result": "clearly lower than phenylbutazone"}, {"measurement": "acute toxicity (verbal summary)", "setting": "mouse", "result": "very low acute toxicity"}, {"measurement": "LD50", "setting": "[4]; ip", "result": 300, "unit": "mg/kg"}, {"measurement": "LD50", "setting": "[4]; po, os", "result": 550, "unit": "mg/kg"}]}, {"molecule": "CCCCC1C(=O)N(c2ccccc2)N(c2ccccc2)C1=O", "note": "[Phenylbu-tazone, phenylbutazone]", "values": [{"measurement": "% ANIMALS WITH ULCERS", "setting": "gastric mucosa [5]; 100 mg X 2 i.p.", "result": 83.30, "unit": "%"}, {"measurement": "N° ANIMALS WITH ULCERS", "setting": "gastric mucosa [5]; 100 mg X 2 i.p.", "result": "10*"}, {"measurement": "animals died during treatment", "setting": "gastric mucosa [5]; 100 mg X 2 i.p.", "result": "* an animal died during treatment"}, {"measurement": "% ANIMALS WITH ULCERS", "setting": "gastric mucosa [5]; 150 mg X 3 os", "result": 91.67, "unit": "%"}, {"measurement": "N° ANIMALS WITH ULCERS", "setting": "gastric mucosa [5]; 150 mg X 3 os", "result": "11**"}, {"measurement": "animals died during treatment", "setting": "gastric mucosa [5]; 150 mg X 3 os", "result": "** two animals died during treatment."}]}]}
